Two compounds from ChEMBL document CHEMBL1145719, “Rigidone, a sesquiterpene o-quinone from the gorgonian Pseudopterogorgia rigida” (J Nat Prod, 1997) can be followed below.

This experiment concerns the target T1, Macrophage scavenger receptor types I and II (Homo sapiens, UniProt P21757).
T1 sequence (P21757 whole entry): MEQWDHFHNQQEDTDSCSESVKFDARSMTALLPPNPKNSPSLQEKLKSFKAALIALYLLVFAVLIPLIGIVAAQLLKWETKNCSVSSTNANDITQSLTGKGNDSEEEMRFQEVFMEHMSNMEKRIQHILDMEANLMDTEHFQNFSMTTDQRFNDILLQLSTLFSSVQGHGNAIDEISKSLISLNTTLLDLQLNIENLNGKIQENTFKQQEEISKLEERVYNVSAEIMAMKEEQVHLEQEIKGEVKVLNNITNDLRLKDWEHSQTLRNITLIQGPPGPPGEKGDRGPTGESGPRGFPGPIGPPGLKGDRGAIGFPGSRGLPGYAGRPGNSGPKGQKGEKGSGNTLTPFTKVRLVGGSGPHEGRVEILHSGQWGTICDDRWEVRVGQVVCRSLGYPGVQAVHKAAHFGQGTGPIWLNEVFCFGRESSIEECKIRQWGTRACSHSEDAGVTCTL
Briefly: Inhibition of full-length MSR1 transfected in HEK293 cells by fluorimetry. In kind it is cell-based.

`CC(C)=CCC[C@H](C)c1c(O)c(O)c(C)c2nc3ccccc3nc12` gave a concentration for half-maximal inhibition (IC50) of 71 µM.
Next, `CC(C)=CCC[C@H](C)C1=C(O)C=C(C)C(=O)C1=O` [RIGIDONE]: 5.6 µM.
